Reference: US20080213249A1, “Use of Retro-Aldol Reaction to Generate Reactive Vinyl Ketone for Attachment to Antibody Molecules by Michael Addition Reaction for Use in Immunostaining and Immunotargeting” (THE SCRIPPS RESEARCH INSITUTE, priority 2006, published 2008)

Assays:
[1] = system: HIV primary isolates and laboratory-adapted strains; conditions: cited from earlier work
antibody 38C2 = experiment: Inactivation of the catalytic (aldolase) activity of antibody 38C2, fluorescence assay with methadol as substrate; assay type: biochemical, mouse; conditions: preliminary studies, unpublished results
Description: To assess the potential of 2a, 3a, 2c, and 3c as programming agents, these compounds were separately mixed with antibody 38C2 at a ratio of 2:1, and the mixtures were incubated at 37° C. for 2 h. A fluorescence assay, based on using methadol as the substrate, was used to assess time-dependent inactivation of the catalytic activity of the antibody (14). Inactivation of aldolase activity should be indicative of modification of the catalytic lysine residue and, thus, chemical programming of the antibody. In the absence of the programming agents, 38C2 rapidly catalyzed the retro-aldol reaction of methadol to produce the fluorescent product 6-methoxy-2-naphthaldehyde. […] (The cpAb 38C2 using targeting agents 2a or 3a were named as 38C2-2b and 38C2-3b, respectively, based on the fact that compounds 2b and 3b were the expected ligands that conjugated with 38C2. Similarly, the analogous chemically programmed 38C2 Fab (or cp38C2Fab) construct obtained from 3a was named as 38C2Fab-3b.) These observations clearly supported the assumption that vinyl ketones, 2b and 3b, produced in situ from their acetone adducts, reacted with the active site of the antibody and also reinforced the previously described construct formation from the analogous diketone compounds 2c and 3c.

Row | SMILES | anti-HIV activity [1] | inactivation of the antibody (antibody 38C2)
1 | C=C(C)[C@@H]1CC[C@]2(C(=O)NCCCCCCCC(=O)N[C@@H](CC(C)C)[C@H](O)CC(=O)O)CC[C@]3(C)[C@H](CC[C@@H]4[C@@]5(C)CC[C@H](O)C(C)(C)[C@@H]5CC[C@]43C)[C@@H]12 [IC9564] | can inhibit both HIV primary isolates and laboratory-adapted strains | 
2 | C=CC(C)=O [methylvinyl ketone] |  | rapidly inactivated the antibody
